Experimental data taken from article PMC6625372 (Frontiers in Oncology, 2019).

Legend:
CLB-BAR cells = experiment: Neuroblastoma xenograft mouse model with tumor immunohistochemistry; type: in vivo, BALB/cAnNRj-Foxn1nu mice; settings: for CD31 (vascularization) in tumors / Ki-67 positivity in tumors, analysis by Ilastik / cleaved caspase positive apoptotic cells in tumors vs vehicle / phospho-histone H3 in tumors vs vehicle / Ki-67 manual analysis, lower median when compared to vehicle (95% CI): day 14; for CD31 (vascularization) in tumors / Ki-67 positivity in tumors, analysis by Ilastik / cleaved caspase positive apoptotic cells in tumors vs vehicle / phospho-histone H3 in tumors vs vehicle: alectinib 20 mg/kg, crizotinib 80 mg/kg once daily; for Ki-67 manual analysis, lower median when compared to vehicle (95% CI): counts normalized against vehicle, 4 independent investigators
Protocol: Results for repotrectinib will be presented elsewhere. […] Tumor volume was measured by calipers every second day and calculated by the following equation: V = (π/6) × L × W^2 (V, volume; L, longest; W, width).
At the end of the experiment xenograft tumors (n = 5 for each tumor category) were harvested and fixed in 4% paraformaldehyde for 72 h. Following fixation, the tumors were imbedded in paraffin blocks and sectioned in […] slices with a manual microtome. Heat-induced epitope retrieval (HIER), using citrate buffer 0.01 M, pH 6, was performed before staining. HIER was achieved through a sequence where citrate buffer, containing the slides, was brought up to boiling, sub-boiled for 5 min following 10 s of intermediate cooling. The sequence was performed three times with cooling (5 min) in between. Following washing in distillated H2O (3 × 5 min), the slides were immerged in 3% H2O2 for 15 min and then washed in tris-buffered saline-Tween 20 (TBST) for 5 min. A hydrophobic pen was used to set a margin encircling the samples on the slides. […] The slides were incubated for 48 h in a cold room after being covered with antibody diluent. […] Additional washing steps in TBST (3 × 5 min) were carried out. […] The slides were counterstained with Mayer's hematoxylin solution (Sigma-Aldrich SLBK8961V), dehydrated and mounted.
Hamamatsu NanoZoomer-SQ Digital slide scanner (C13140-01) with a x20 (NA 0.75) objective was used to obtain digital images of the slides. Slides were randomly blinded to the investigator. For each of the blinded slides, a representative 1 mm^2 area was selected employing NanoZoomer Digital Pathology viewer. The slide-image was cropped, containing the area of interest, and saved, as a TIF-file at × 20 resolution. The saved TIF-files were cropped, using ImageJ (Fiji) ([44]), into merely encompassing the 1 mm^2 area of interest.
The 6–7 images were then uploaded into Ilastik ([45]), an interactive machine-learning toolkit, and used as a learning foundation for the software (see program code, Supplementary Data Sheet 3). Once the software analyzed the learning images, the whole batches were processed in Ilastik. The output was then transferred to ImageJ where a macro (see program code, Supplementary Data Sheet 2) calculated the area of staining. The pixel size acquired from NanoZoomer Digital Pathology viewer was accounted for in the macro. Ki-67 immunohistochemistry was also analyzed manually. […] Ninety five percent confidence intervals for the difference between median were retrieved with GraphPad.
GraphPad Prism 7.0 was used for statistical analysis. A non-parametric test was performed acquiring P-values by applying a Mann-Whitney test.

CLB-BAR [1] = experiment: Cell cycle analysis (DAPI, NucleoCounter NC-3000); settings: 24 h, 75 and 150 nM
[2] = system: SK-N-AS (11q-del, K-RasQ61K); experiment: Apoptosis analysis, cleaved PARP immunoblot; type: cell-based; settings: 100 nM, 24 h
SK-N-AS = experiment: Cell cycle analysis (DAPI, NucleoCounter NC-3000); settings: SK-N-AS control cell line, 24 h, 75 and 150 nM
CLB-BAR [3] = experiment: Apoptosis analysis, cleaved PARP immunoblot; type: cell-based; settings: 100 nM, 24 h
CLB-GE [4] = experiment: Apoptosis analysis, cleaved PARP immunoblot; type: cell-based; settings: 100 nM, 24 h
CLB-GE [5] = experiment: Cell cycle analysis (DAPI, NucleoCounter NC-3000); settings: 24 h, 75 and 150 nM
CLB-PE = experiment: Apoptosis analysis, cleaved PARP immunoblot; type: cell-based; settings: 100 nM, 24 h
Protocol: (§1) Supplementary Figure 3. Investigation of apoptosis in wild type neuroblastoma cell lines when treated with alectinib. […] Cell lysates were immunoblotted for PARP and ERK (employed as loading control). […] Three independent experiments were performed.

IMR-32 = experiment: Apoptosis analysis, cleaved PARP immunoblot; type: cell-based; settings: IMR-32, 100 nM, 24 h
Protocol: as §1

Compound | growth of neuroblastoma xenografts (CLB-BAR cells; 20 mg/kg bodyweight once daily, 14 days, vs vehicle) | body weight and side effects during treatment (CLB-BAR cells; 20 mg/kg once daily, 14 days) | xenograft tumor volume compared with vehicle (CLB-BAR cells; 20 mg/kg once daily, day 6 p = 0.0222, day 8 p < 0.0001, day 14 p = 0.0072) | tumor growth inhibition compared with crizotinib (CLB-BAR cells; alectinib 20 mg/kg vs crizotinib 80 mg/kg once daily, 14 days) | CD31 (vascularization) in tumors (CLB-BAR cells) | Ki-67 positivity in tumors, analysis by Ilastik (CLB-BAR cells) | cleaved caspase positive apoptotic cells in tumors vs vehicle (CLB-BAR cells) | phospho-histone H3 in tumors vs vehicle (CLB-BAR cells) | Ki-67 manual analysis, lower median when compared to vehicle (95% CI) (CLB-BAR cells) | cell cycle progression, G1 accumulation (CLB-BAR [1]) | cleaved PARP levels [2] | cell cycle progression, G1 accumulation (SK-N-AS) | cleaved PARP levels (CLB-BAR [3]) | cleaved PARP levels (CLB-GE [4]) | cell cycle progression, G1 accumulation (CLB-GE [5]) | cleaved PARP levels (CLB-PE) | cleaved PARP levels (IMR-32)
CCc1cc2c(cc1N1CCC(N3CCOCC3)CC1)C(C)(C)c1[nH]c3cc(C#N)ccc3c1C2=O [alectinib] | effectively abrogated growth | No difference in body weight or obvious side effects | significantly reduced | more effective than with crizotinib | significant increase | non-significant decrease | significantly lower | significant decrease | 0.46 (95% CI 0.32–0.52) | increased G1 accumulation | no difference was observed | not observed | significant increase of cleaved PARP levels | significant increase of cleaved PARP levels | increased G1 accumulation | no difference was observed | no difference was observed
C[C@@H](Oc1cc(-c2cnn(C3CCNCC3)c2)cnc1N)c1c(Cl)ccc(F)c1Cl [crizotinib] |  |  |  |  | significant increase | modest, but significant reduction | non-significant decrease | not observed | 0.49 (95% CI 0.47–0.50) |  |  |  |  |  |  |  | 
